These results are taken from patent publication US10265257B2, “Personal care composition” (Innospec Limited, priority 2007, dated 2019).

Data set [1] deals with Zein protein.
Description: (§2) The Zein protocol is an in-vitro test to measure skin irritancy of formulations. The method makes use of the correlation between binding ability of surfactants to proteins and the damage the surfactant causes to the skin. […] Zein protein, an insoluble protein extracted from corn kernel, is used as a model for epidermal protein and the solubility of the Zein protein in surfactant solutions is believed to be a reliable guide for the skin irritancy caused by the surfactant. The test involves establishing the amount of Zein protein which can be solubilised by surfactant. 5 g of Zein protein may be dispersed in 40 cm^3 of surfactant solution (at 2 wt % concentration). The mixture is shaken for 1 hour at 35° C., and immediately centrifuged to remove any non-solubilised Zein. The amount solubilised is estimated from the solution nitrogen content using micro-Kjeldahl method (making allowance for any nitrogen in the compound tested).
Data set [2] has as its system Zein protein. The following applies: stated as known for comparison compounds; cited from earlier work.
Data set [3] can be described thus: pH stability of SCMI solutions over time. The data set is classed as physicochemical. How it is done: (§1) The pH values were read using a standard electrode pH meter (Fisher Accument XL-25). The electrode was place in the composition (no further dilution) and the pH recorded.
In a preliminary test 10 wt % solutions of SCMI, adjusted to have initial pH values respectively of 4.5, 5.5, 6.5, 7.5, 8.5 and 9.5, each held at 48.9° C. for an extended period of days, were tested for their pH stability over the extended period. The pH testing was as described above.

Data set [4] is described as follows: Stability of SCMI in aqueous solution (amount of SCMI present over time). The data set is classed as physicochemical. The following applies: 10 wt % aqueous solutions, initial pH 4.5, 5.5, 6.5, 7.5, 8.5 and 9.5, held at 48.9° C., 30 days. How it is done:
In a preliminary test the stability of SCMI in 10 wt % aqueous solutions adjusted to have initial pH values respectively of 4.5, 5.5, 6.5, 7.5, 8.5 and 9.5, each held at 48.9° C. for an extended period of days, were tested for the amount of SCMI present over the test period.
as §1

Data set [5] concerns Zein protein. As to the kind of experiment: Zein protocol in-vitro skin irritancy test. The following applies: FIG. 3, surfactant solution 2 wt %, 1 hour at 35° C.
Description: as §2
Data set [6] is described as follows: Simple solubility tests in deionised water. The data set is classed as physicochemical.

Where two headings read alike, the source gives them in different places.

For the substance sodium lauroylmethylisethionate [SLMI], the “skin irritancy (Zein protocol)” value in data set [1] is “low irritancy”.

On to sodium laureth sulfate [SLES], for which, in data set [2], the “skin irritancy, known” value is “significant irritancy”.

Turning to sodium cocoylmethylisethionate [SCMI], in data set [3] (10 wt % solution, initial pH 9.5, 48.9° C., first few days), the “pH change of sample held at highest pH value” is “small pH reduction”. For the same substance, the “pH values from Day 0 to Day 30” value in data set [3] (10 wt % solutions, initial pH 4.5 to 9.5, held at 48.9° C., 30 days) is “substantially unchanged”. For the same substance, the “percentage of SCMI present, Day 0 to Day 30” value in data set [4] is “does not change”. Moreover, the “skin irritancy (Zein protocol)” value in data set [5] was “low irritancy”. Further, the “appearance of 10 wt % in deionised water (solubility test)” value in data set [6] is given as “clear solution”.

For sodium cocoyl isethionate [SCI], in data set [2], the “skin irritancy, known” value is reported as “low irritancy”.
